The record followed here is patent US12728186B2, “Methods and kits for preparing pathogen-inactivated whole blood” (priority 2018, dated 2026).

Data set [1] in a line: Residual unreacted amustaline by LCMS, Example 5 (2-container kits, transfer at 18, 20 or 22 hr). The format is physicochemical. Conditions: Units 15-21, 2-container kit, transfer time 22 hr, 22° C. As for the experimental part:
A further study was performed to evaluate additional conditions for the preparation of pathogen-inactivated whole blood using amustaline and GSH in 2-container kits of the present disclosure (e.g., FIG. 3b). Amustaline and GSH were added to the whole blood units at 0.2 mM and 2.0 mM final concentrations, respectively, in the first container. […] Following transfer to the second container the mixtures were further incubated at 22° C., with sampling for analysis at 2 hr intervals as shown in Table 6.
(§1) Samples were analyzed by LCMS to determine the level of residual, unreacted amustaline as previously described.

A short description of data set [2]: Residual unreacted amustaline by LCMS, Example 4 (1-, 2- or 3-container kits). The format is physicochemical. Conditions: for Residual amustaline levels in pathogen-inactivated whole blood, 20 hr / Residual amustaline levels in pathogen-inactivated whole blood, 22 hr / Residual amustaline levels in pathogen-inactivated whole blood, 24 hr / Residual amustaline levels in pathogen-inactivated whole blood, 26 hr: 22° C. As for the experimental part: Another study was performed to evaluate the preparation of pathogen-inactivated whole blood using amustaline and GSH, in 1-container, 2-container or 3-container kits of the present disclosure. Six ABO-matched whole blood units in anticoagulant were pooled and split into seven units of ~450 mL. The seven whole blood units were subjected to pathogen inactivation under one of three conditions—with no transfer step between containers, one transfer step between two containers, or two transfer steps between three containers (Table 5). Amustaline and GSH were added to the whole blood units by sterile docking of a filter set as previously described to the tubing of an input port of the first container that contained the whole blood. Unit 1 was treated with amustaline and GSH at 0.2 mM and 2.0 mM final concentrations, respectively, in the first container and incubated at 22° C., with samples taken at 20, 22, 24 and 26 hours, with no further container transfers. For units 2-4, amustaline and GSH were added to the whole blood (0.2 mM and 2.0 mM final concentrations, respectively) in the first container and incubated at 22° C. for 20 hours. A sample was taken at 20 hours, along with transfer to a second bag and further incubation at 22° C., with additional sampling at 2 hour intervals (22, 24 and 26 hr). For units 5-7, amustaline and GSH were added to the whole blood (0.2 mM and 2.0 mM final concentrations, respectively) in the first container and the mixture transferred to a second container, followed by incubation at 22° C. for 20 hours. A sample was taken at 20 hours, along with transfer to a third bag and further incubation at 22° C., with additional sampling at 2 hour intervals (22, 24 and 26 hr).
as §1

Setting [3] is: Unit 1, no transfer (1 bag kit).
Setting [4] is: Units 2-4, 1x transfer (2 bag kit), to second bag at 20 hr.
[5] abbreviates: Units 5-7, 2x transfer (3 bag kit), second container after addition, third bag at 20 hr.

“And” between values parts separate entries of the source, which are not always exact repeats. Equal values may be shown once.

Take `O=C(CCNc1c2ccccc2nc2ccccc12)OCCN(CCCl)CCCl` [amustaline]: the “Residual amustaline levels in pathogen-inactivated whole blood, 24 hr” value in data set [1] (24 hr) is given as “BLOQ (BLOQ = Below Limit of Quantitation (e.g., <0.75 nM))”; in data set [2] (setting [3]) it was 1.39 nM; in data set [2] (setting [4]) it was “BLOQ (BLOQ = Below Limit of Quantitation (e.g., < 0.75 nM))”; in data set [2] (setting [5]), “BLOQ (BLOQ = Below Limit of Quantitation (e.g., < 0.75 nM))”. For the same molecule, the “Residual amustaline levels in pathogen-inactivated whole blood, 26 hr” value in data set [1] (26 hr) is listed as “BLOQ (BLOQ = Below Limit of Quantitation (e.g., <0.75 nM))”; in data set [2] (setting [3]) it was 1.32 nM; in data set [2] (setting [4]), “BLOQ (BLOQ = Below Limit of Quantitation (e.g., < 0.75 nM))”; in data set [2] (setting [5]) it was “BLOQ (BLOQ = Below Limit of Quantitation (e.g., < 0.75 nM))”. Besides, the “level of amustaline after PI processing, 2-container and 3-container kits” value in data set [2] (2-container and 3-container kits, after transfer at 20 hr) is given as “below the limit of quantitation”. Besides, the “Residual amustaline levels in pathogen-inactivated whole blood, 20 hr” value in data set [2] (20 hr (at transfer to third bag), Units 5-7, 2x transfer (3 bag kit), second container after addition, third bag at 20 hr) is 1.47 nM and 1.46 nM and 1.53 nM; in data set [2] (20 hr (at transfer), Units 2-4, 1x transfer (2 bag kit), to second bag at 20 hr), 1.53 nM and 1.65 nM and 1.66 nM; in data set [2] (20 hr, Unit 1, no transfer (1 bag kit)), 1.47 nM. Moreover, the “Residual amustaline levels in pathogen-inactivated whole blood, 22 hr” value was 1.54 nM in data set [2] (setting [3]); “BLOQ (BLOQ = Below Limit of Quantitation (e.g., < 0.75 nM))” in data set [2] (setting [4]); “BLOQ (BLOQ = Below Limit of Quantitation (e.g., < 0.75 nM))” in data set [2] (setting [5]).
